Test results published in US6368788B1 (priority 1987, dated 2002).
Marks after values point to notes of the source that are not given here.

Assays:
[1] = Lymphatic infections (lymphangitis); assay type: in vivo; settings: 100 μg im, 1 μg/kg intranasally or intralymphatically
[2] = Frequently ill children with respiratory infection, asthma and allergy (Protocol C); assay type: in vivo, human
[3] = system: bone marrow cells; assay: Bone marrow and peripheral blood cells in 5-FU immunosuppressed mice; assay type: in vivo, CBA mice
Procedure: The effects of L-Glu-L-Trp on bone marrow hematopoietic activity was investigated in 5-fluorouracil (5-FU) immunosuppressed CBA mice. Mice were treated with a dose schedule of 5-FU determined empirically to be sufficient to decrease the absolute number of bone marrow cells and peripheral blood leukocytes by about 50% on day 10-14. Treatment with L-Glu-L-Trp was initiated on day 10, and 1 μg/kg was administered ip daily on that day and each of the following 4 days. Bone marrow and peripheral blood cell populations were quantified on day 15.

[4] = system: C. albicans; assay: Disseminated candidiasis: mean survival and kidney infection (Study 41B); assay type: in vivo, mice; settings: for Kidney Infection: greater than 8 logs of C. albicans, day 5
Procedure: Study 41B: Using a standardized inoculum (i.e., 10^8 cells/mL), the LD95 value (=14.9×10^6 cells/animal) was determined by injecting different numbers of C. albicans cells iv into mice and recording deaths at 20 days. L-Glu-L-Trp was administered ip at doses of 1, 10, 100 and 300 μg/kg in either a prophylactic or therapeutic drug regimen (abbreviated PDR or TDR, respectively). Prophylaxis consisted of 3 ip injections on 3 consecutive days, with the last injection being 3 hours before injecting the C. albicans cells iv. Therapy consisted of 10 consecutive daily ip injections starting 24 hours after the iv injection of the C. albicans cells. Mean survival was determined at 10 days, and as an independent monitor for infection, kidneys were removed from nine parallel groups (12 animals each) of infected animals at 5 days and after microbiological isolation the numbers of C. albicans cultures counted.

[5] = system: Herpes vulgaris; settings: in combination with interferon; 7-10 outbreaks per year before
[6] = system: peripheral blood leukocytes
Procedure: Twenty-eight patients (15) having the same disease profile and under conventional treatment formed a control group.
The patients presented with the following diagnosed odontogenic infections: 18 with limited purulent infection(s), 7 with focal infection(s), 3 with diffuse infection(s). In addition, 3 patients presented with destructive osteomyelitis and 15 with plegmons mandible.
All 15 children in the conventional treatment group were evaluated before therapy. Post-treatment measurements were performed with peripheral blood samples that were collected from all the conventional and L-Glu-L-Trp treated children. Fifteen healthy normal children were also evaluated to determine the normal mean values in the respective assays (Normal Healthy Control).

[7] = bone marrow, 5-FU + 1 μg/kg ip daily 5 days, day 15
[8] = peripheral blood, 5-FU + 1 μg/kg ip daily 5 days, day 15
[9] = children, periapical granulomas, L-Glu-L-Trp Combination, After Therapy

Substance: L-Glu-L-Trp
- Clinical outcome [1]: controls the progression of lymphangitis
- Children with a decrease in the number of respiratory infections ([2]; 6-12 months): 92.9%
- T-lymphocytes in peripheral blood ([2]; after first course): statistically significant increase was noted in both the absolute number and percentage of T-lymphocytes
- Reduction in attacks of bronchial asthma ([2]; asthma patients): 4.2 fold
- Average reduction in the number of infections ([2]; in vivo): 3.6 fold
- Decrease of average length of illness ([2]; in vivo): 4 to 5 days
- Patients in whom food allergies disappeared ([2]; in vivo): 67.8%
- Bone marrow cells ([3]; 1 μg/kg ip, 5 days): an increase in the numbers of myelocytes/neutrophils, stab and segmented neutrophils, and megakaryocytes
- Eosinophils (% of Normal Control Value) [3, 7]: (64%)
- Eosinophils: % [3, 7]: 1.1%
- Eosinophils: Total Cells [3, 7]: 15600 mg⁻¹
- Erythroblasts (% of Normal Control Value) [3, 7]: (64%)
- Erythroblasts: % [3, 7]: 2.1%
- Erythroblasts: Total Cells [3, 7]: 29600 mg⁻¹
- Erythroid cells (% of Normal Control Value) [3, 7]: (59%)
- Erythroid cells: % [3, 7]: 9.7%
- Lymphocytes (% of Normal Control Value) [3, 7]: (88%)
- Lymphocytes: % [3, 7]: 43.9%
- Lymphocytes: Total Cells [3, 7]: 618900 mg⁻¹
- Megakaryocytes (% of Normal Control Value) [3, 7]: (43%)
- Megakaryocytes: % [3, 7]: 0.3%
- Megakaryocytes: Total Cells [3, 7]: 4200 mg⁻¹
- Monocytes (% of Normal Control Value) [3, 7]: (60%)
- Monocytes: % [3, 7]: 2.5%
- Monocytes: Total Cells [3, 7]: 35300 mg⁻¹
- Myeloblasts (% of Normal Control Value) [3, 7]: (74%)
- Myeloblasts: % [3, 7]: 5.0%
- Myeloblasts: Total Cells [3, 7]: 70600 mg⁻¹
- Myelocytes + Neutrophil Metamyelocytes (% of Normal Control Value) [3, 7]: (40%)
- Myelocytes + Neutrophil Metamyelocytes: % [3, 7]: 4.0%
- Myelocytes + Neutrophil Metamyelocytes: Total Cells [3, 7]: 56400 mg⁻¹
- Myelokaryocytes (% of Normal Control Value) [3, 7]: (58%)
- Myelokaryocytes: Total Cells [3, 7]: 1.41e+06 mg⁻¹
- Non-differentiated blast cells (% of Normal Control Value) [3, 7]: (64%)
- Non-differentiated blast cells: % [3, 7]: 2.2%
- Non-differentiated blast cells: Total Cells [3, 7]: 31000 mg⁻¹
- Promyeloblasts (% of Normal Control Value) [3, 7]: (74%)
- Promyeloblasts: % [3, 7]: 3.6%
- Promyeloblasts: Total Cells [3, 7]: 50800 mg⁻¹
- Reticular cells (% of Normal Control Value) [3, 7]: (50%)
- Reticular cells: % [3, 7]: 0.7%
- Reticular cells: Total Cells [3, 7]: 9800 mg⁻¹
- Stab + Seg. neutrophils (% of Normal Control Value) [3, 7]: (34%)
- Stab + Seg. neutrophils: % [3, 7]: 24.9%
- Stab + Seg. neutrophils: Total Cells [3, 7]: 351000 mg⁻¹
- Blast Cells: % [3, 8]: 0.3%
- Blast Cells: Total Cells [3, 8]: 1e+07 L⁻¹
- Eosinophils (% of Normal Control Value) [3, 8]: (100%)
- Eosinophils: % [3, 8]: 0.3%
- Eosinophils: Total Cells [3, 8]: 1e+07 L⁻¹
- Lymphocytes (% of Normal Control Value) [3, 8]: (93%)
- Lymphocytes: % [3, 8]: 41.9%
- Lymphocytes: Total Cells [3, 8]: 2.52e+09 L⁻¹
- Monocytes (% of Normal Control Value) [3, 8]: (18%)
- Monocytes: % [3, 8]: 2.5%
- Monocytes: Total Cells [3, 8]: 2e+07 L⁻¹
- Peripheral Blood Leukocytes (% of Normal Control Value) [3, 8]: (52%)
- Peripheral Blood Leukocytes: Total Cells [3, 8]: 2.98e+09 L⁻¹
- Segmented Neutrophils (% of Normal Control Value) [3, 8]: (22%)
- Segmented Neutrophils: % [3, 8]: 14.6%
- Segmented Neutrophils: Total Cells [3, 8]: 4.3e+08 L⁻¹
- Stab. Neutrophils (% of Normal Control Value) [3, 8]: (26%)
- Stab. Neutrophils: % [3, 8]: 7.9%
- Stab. Neutrophils: Total Cells [3, 8]: 2.4e+08 L⁻¹
- Survival % 6d ([4]; PDR, 1 μg/kg ip): 50%
- Survival % 8d ([4]; PDR, 1 μg/kg ip): 20%
- Survival Mean ([4]; PDR, 1 μg/kg ip): 6.2 ± 2.0 days
- Kidney Infection ([4]; PDR, 1 μg/kg ip): 58%
- Survival % 6d ([4]; PDR, 10 μg/kg ip): 60%
- Survival % 8d ([4]; PDR, 10 μg/kg ip): 20%
- Survival Mean ([4]; PDR, 10 μg/kg ip): 6.4 ± 2.2 days
- Kidney Infection ([4]; PDR, 10 μg/kg ip): 58%
- Survival % 6d ([4]; PDR, 100 μg/kg ip): 80%
- Survival % 8d ([4]; PDR, 100 μg/kg ip): 40%
- Survival Mean ([4]; PDR, 100 μg/kg ip): 7.9 ± 1.9 days
- Kidney Infection ([4]; PDR, 100 μg/kg ip): 75%
- Survival % 6d ([4]; PDR, 300 μg/kg ip): 80%
- Survival % 8d ([4]; PDR, 300 μg/kg ip): 50%
- Survival Mean ([4]; PDR, 300 μg/kg ip): 7.8 ± 2.1 days
- Kidney Infection ([4]; PDR, 300 μg/kg ip): 58%
- Survival % 6d ([4]; TDR, 1 μg/kg ip): 60%
- Survival % 8d ([4]; TDR, 1 μg/kg ip): 50%
- Survival Mean ([4]; TDR, 1 μg/kg ip): 7.3 ± 2.7 days
- Kidney Infection ([4]; TDR, 1 μg/kg ip): 67%
- Survival % 6d ([4]; TDR, 10 μg/kg ip): 50%
- Survival % 8d ([4]; TDR, 10 μg/kg ip): 30%
- Survival Mean ([4]; TDR, 10 μg/kg ip): 6.2 ± 2.2 days
- Kidney Infection ([4]; TDR, 10 μg/kg ip): 50%
- Survival % 6d ([4]; TDR, 100 μg/kg ip): 80%
- Survival % 8d ([4]; TDR, 100 μg/kg ip): 50%
- Survival Mean ([4]; TDR, 100 μg/kg ip): 7.8 ± 1.9 days
- Kidney Infection ([4]; TDR, 100 μg/kg ip): 75%
- Survival % 6d ([4]; TDR, 300 μg/kg ip): 80%
- Survival % 8d ([4]; TDR, 300 μg/kg ip): 40%
- Survival Mean ([4]; TDR, 300 μg/kg ip): 7.8 ± 2.1 days
- Kidney Infection ([4]; TDR, 300 μg/kg ip): 67%
- Survival ([4]; prophylactic and therapeutic treatments): significantly increased the number of animals surviving at days 6 and 8
- Outbreaks after treatment [5]: less than one outbreak per year
- B-Lymphocytes % of Normal Value [6, 9]: (108%)
- B-Lymphocytes: No. [6, 9]: 0.67 ± 0.05 10^9/L
- IgA [6, 9]: 1.09 ± 0.04 g/L
- IgA % Normal Value [6, 9]: (104%)
- IgG [6, 9]: 10.78 ± 0.83 g/L
- IgG % Normal Value [6, 9]: (117%)
- IgM [6, 9]: 0.93 ± 0.07 g/L
- IgM % Normal Value [6, 9]: (95%)
- LMIR Response: % w/PHA [6, 9]: 14.65 ± 3.11 %
- Leukocytes % Normal Value [6, 9]: (97%)
- Leukocytes: No. [6, 9]: 6.60 ± 0.39* 10^9/L
- Lymphocytes % Normal Value [6, 9]: (36%)
- Lymphocytes: No. [6, 9]: 2.37 ± 0.21 10^9/L
- T-Lymphocytes % of Normal Value [6, 9]: (98%)
- T-Lymphocytes: No. [6, 9]: 1.24 ± 0.11* 10^9/L
- T-lymphocyte counts, % of normal levels ([6]; following combination therapy): 98%
